Literature values, collected in patent publication US10293012B2 (priority 2017, dated 2019).

System: HSV1

heparin [Soluble heparin]
inhibition of HSV1 infection: competitively inhibit
